This passage reports GI50 and TGI results from PubChem BioAssay (NCI).

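Growth conditions: 96-well plates. Treatment: test compound, 48 hours, 5 concentrations. Analysis: linear interpolation between bracketing concentrations; unreached endpoints set to highest concentration. At the GI50, growth is halved. TGI: total growth inhibition.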 Some results are limits rather than exact numbers.

In the first assay the test system is SF-539 CNS. As to the kind of experiment: NCI anticancer screen, dose series, 48 h.
Consider `Cc1cc(Nc2nc(SCc3ccc(C(=O)Nc4ccc(F)cc4N)cc3)nn3cccc23)n[nH]1`, for which the GI50 is 0.282 µM and the TGI was determined as 17.4 µM.

`COc1ccccc1/C=C/C(=O)/C=C/c1ccccc1O`: the GI50 is 1.46 µM and the TGI is 2.78 µM.

The molecule `CCOC(=O)C(=O)Nc1ccccc1C(F)(F)F` registered a TGI greater than 100 µM.

For `CCOC(=O)/C(=C/c1cccc(OC)c1)N(CC)CC`, the TGI was greater than 100 µM.

As to `c1ccc2nc3c(cc4ccccn43)nc2c1`, the GI50 is 36.7 µM and the TGI is greater than 100 µM.

For the molecule `NC(=O)/C=C/C(=O)O`, the TGI was greater than 5000 µM.

Consider `Cc1c(C(=O)CSc2nc3ccccc3c(=O)n2-c2ccccc2)c(=O)n(-c2ccccc2)n1C`, for which the TGI was greater than 100 µM.

For `O=C1C=C(O)c2[nH]c(=O)ccc2C1=O`, the TGI is greater than 100 µM.

`O=c1c(Cl)c(Cl)cnn1CCc1ccncc1` came in with a TGI of 43.4 µM.

`CCCCCCCCCCCCCC(=O)OCC1OC(=O)CC1O` (configuration not stated) showed a TGI greater than 100 µM.

On to `CCSc1nc(N)c2cn[nH]c2n1`, for which the GI50 was 43.6 µM and the TGI was greater than 100 µM.

`CC1(Cc2ccccc2)NC(=S)NC1=O` (configuration not stated): the TGI was greater than 100 µM.

As for `O=c1c2c3c(sc2n2c(-c4cc(-c5ccccc5)nn4-c4ccccc4)nnc2n1Cc1ccccc1)CCCC3`, the GI50 is greater than 100 µM and the TGI is greater than 100 µM.

Regarding `COc1ccc(CC(C)C(C)Cc2ccc(OC)c(OC)c2)cc1OC` (configuration not stated), the GI50 is greater than 1400 µM and the TGI is greater than 1400 µM.

In turn, `O=C1C2=C(c3ccccc31)C(c1ccccc1Cl)N1C(=O)CCSC1=N2` (configuration not stated) displayed a TGI greater than 100 µM.

Turning to `Cc1ccc2nc3c(Cl)c(C)c(=O)cc-3sc2c1`, the GI50 was 50.9 µM and the TGI is greater than 100 µM.

As to `O=C/C(=C(/Cl)c1ccc(O)cc1)c1ccccc1`, the TGI is greater than 57.1 µM.

`C=CCO/N=C/c1cc(NC(=S)c2ccoc2C)ccc1Cl` came in with a TGI of 44.6 µM.

Take `Cn1c2ccccc2c2c(=O)c3ccccc3[nH]c21`: the GI50 is 34 µM and the TGI was greater than 100 µM.

The next assay has as its system HCC-2998 colon. As to the kind of experiment: NCI anticancer screen, dose series, 48 h.
Regarding `Cc1cc(Nc2nc(SCc3ccc(C(=O)Nc4ccc(F)cc4N)cc3)nn3cccc23)n[nH]1`, the GI50 was 0.677 µM and the TGI turned out to be 11.5 µM.

As for `COc1ccccc1/C=C/C(=O)/C=C/c1ccccc1O`, the GI50 is 1.29 µM and the TGI is 2.64 µM.

`CCOC(=O)C(=O)Nc1ccccc1C(F)(F)F` displayed a TGI greater than 100 µM.

`CNC(SC)=C1C(=O)OC(C)(C)OC1=O` showed a TGI greater than 100 µM.

On to `c1ccc2nc3c(cc4ccccn43)nc2c1`, for which the GI50 was 61.8 µM and the TGI was greater than 100 µM.

Turning to `Cc1c(C(=O)CSc2nc3ccccc3c(=O)n2-c2ccccc2)c(=O)n(-c2ccccc2)n1C`, the TGI was greater than 100 µM.

On to `c1ccc(Cn2cnc3ccc(-c4nc(-c5ccc6c(c5)ncn6C5CCCCC5)cn5ccnc45)cc32)cc1`, for which the GI50 is 1.9 µM and the TGI is 3.41 µM.

`CC(=O)OCC1OC(n2cc([N+](=O)[O-])c(=O)[nH]c2=O)C(OC(C)=O)C(OC(C)=O)C1OC(C)=O` (configuration not stated) gave a TGI greater than 100 µM.

Regarding `O=C1C=C(O)c2[nH]c(=O)ccc2C1=O`, the TGI is greater than 100 µM.

The molecule `O=c1c(Cl)c(Cl)cnn1CCc1ccncc1` came in with a TGI of 27.9 µM.

With `CCCCCCCCCCCCCC(=O)OCC1OC(=O)CC1O` (configuration not stated), the TGI is greater than 100 µM.

Consider `CC1(Cc2ccccc2)NC(=S)NC1=O` (configuration not stated), for which the TGI was greater than 100 µM.

Turning to `O=c1c2c3c(sc2n2c(-c4cc(-c5ccccc5)nn4-c4ccccc4)nnc2n1Cc1ccccc1)CCCC3`, the GI50 is greater than 100 µM and the TGI is greater than 100 µM.

In the case of `Cc1ccc2c(c1)Sc1ccc(N=NN(C)C)cc1N2C`, the TGI was greater than 100 µM.

The molecule `O=C1C2=C(c3ccccc31)C(c1ccccc1Cl)N1C(=O)CCSC1=N2` (configuration not stated) gave a TGI greater than 100 µM.

For `Cc1ccc2nc3c(Cl)c(C)c(=O)cc-3sc2c1`, the GI50 was greater than 100 µM and the TGI was greater than 100 µM.

`O=C/C(=C(/Cl)c1ccc(O)cc1)c1ccccc1` came in with a TGI greater than 100 µM.

As to `C=CCO/N=C/c1cc(NC(=S)c2ccoc2C)ccc1Cl`, the TGI was 24 µM.

The subject of another assay is COLO 205 colon. As to the kind of experiment: NCI anticancer screen, dose series, 48 h.
Regarding `COc1ccccc1/C=C/C(=O)/C=C/c1ccccc1O`, the GI50 is 1.11 µM and the TGI was found to be 2.49 µM.

As to `CCOC(=O)C(=O)Nc1ccccc1C(F)(F)F`, the TGI was greater than 100 µM.

`CCOC(=O)/C(=C/c1cccc(OC)c1)N(CC)CC` yielded a TGI greater than 100 µM.

For `CNC(SC)=C1C(=O)OC(C)(C)OC1=O`, the TGI is greater than 100 µM.

Take `c1ccc2nc3c(cc4ccccn43)nc2c1`: the GI50 is 64 µM and the TGI was greater than 100 µM.

With `NC(=O)/C=C/C(=O)O`, the TGI was greater than 5000 µM.

Molecule `Cc1c(C(=O)CSc2nc3ccccc3c(=O)n2-c2ccccc2)c(=O)n(-c2ccccc2)n1C` displayed a TGI greater than 100 µM.

Regarding `CC(=O)OCC1OC(n2cc([N+](=O)[O-])c(=O)[nH]c2=O)C(OC(C)=O)C(OC(C)=O)C1OC(C)=O` (configuration not stated), the TGI was greater than 100 µM.

`O=C1C=C(O)c2[nH]c(=O)ccc2C1=O` yielded a TGI greater than 100 µM.

`CCCCCCCCCCCCCC(=O)OCC1OC(=O)CC1O` (configuration not stated) displayed a TGI greater than 100 µM.

As to `CCSc1nc(N)c2cn[nH]c2n1`, the GI50 was 23.5 µM and the TGI is 53.9 µM.

`CC1(Cc2ccccc2)NC(=S)NC1=O` (configuration not stated): the TGI was greater than 100 µM.

Consider `O=c1c2c3c(sc2n2c(-c4cc(-c5ccccc5)nn4-c4ccccc4)nnc2n1Cc1ccccc1)CCCC3`, for which the GI50 was greater than 100 µM and the TGI is greater than 100 µM.

`COc1ccc(CC(C)C(C)Cc2ccc(OC)c(OC)c2)cc1OC` (configuration not stated): the GI50 was greater than 1400 µM and the TGI was greater than 1400 µM.

On to `Cc1ccc2c(c1)Sc1ccc(N=NN(C)C)cc1N2C`, for which the TGI was greater than 100 µM.

`O=C1C2=C(c3ccccc31)C(c1ccccc1Cl)N1C(=O)CCSC1=N2` (configuration not stated) returned a TGI greater than 100 µM.
